Species: Rattus norvegicus
Assay: DrugMatrix - Regimen: Daily Repeat
Format: toxicity, organism-based, Sprague-Dawley
Design: regimen Daily Repeat, gender Male, age 6-8 weeks
Details: in vivo, sc, route subcutaneous, […]; for ABSOLUTE BASOPHIL / ABSOLUTE EOSINOPHIL / ABSOLUTE LYMPHOCYTE / ABSOLUTE MONOCYTE / ABSOLUTE SEGMENTED NEUTROPHIL / BASOPHIL / EOSINOPHIL / ERYTHROCYTE COUNT / HEMATOCRIT / HEMOGLOBIN / LEUKOCYTE COUNT / LYMPHOCYTE / MEAN CORPUSCULAR HEMOGLOBIN / MEAN CORPUSCULAR HEMOGLOBIN CONCENTRATION / MEAN CORPUSCULAR VOLUME / MONOCYTE / NEUTROPHIL / NUCLEATED RED BLOOD CELLS / PLATELET COUNT: tissue Blood; for ALANINE AMINOTRANSFERASE / ALBUMIN / ALKALINE PHOSPHATASE / ASPARTATE AMINOTRANSFERASE / BLOOD UREA NITROGEN / CARBON DIOXIDE / CHLORIDE / CHOLESTEROL / CREATINE PHOSPHOKINASE / CREATININE / GLUCOSE / LACTATE DEHYDROGENASE / LIPASE / PHOSPHORUS / POTASSIUM / SODIUM / TOTAL BILIRUBIN / TOTAL PROTEIN / URIC ACID: tissue Plasma
[1] = 150 mg/kg, 120 h, dose level High, time 5 day
[2] = 72 h, dose 2.8 mg/Kg, dose level Low, time 3 day
[3] = 120 h, dose 2.8 mg/Kg, dose level Low, time 5 day

## CN(Cc1ccc(C(C)(C)C)cc1)Cc1cccc2ccccc12 [BUTENAFINE]
[1]
  ABSOLUTE BASOPHIL: 0 CELLS/uL
  ABSOLUTE EOSINOPHIL: 60.33 CELLS/uL
  ABSOLUTE LYMPHOCYTE: 7925.67 CELLS/uL
  ABSOLUTE MONOCYTE: 152 CELLS/uL
  ABSOLUTE SEGMENTED NEUTROPHIL: 1062 CELLS/uL
  BASOPHIL: 0%
  EOSINOPHIL: 1%
  ERYTHROCYTE COUNT: 5.24 x10E6/uL
  HEMATOCRIT: 32.57%
  HEMOGLOBIN: 12.97 G/DL
  LEUKOCYTE COUNT: 9.2 x10E3/uL
  LYMPHOCYTE: 85.67%
  MEAN CORPUSCULAR HEMOGLOBIN: 24.87 pg
  MEAN CORPUSCULAR HEMOGLOBIN CONCENTRATION: 39.93 G/DL
  MEAN CORPUSCULAR VOLUME: 62.17 fL
  MONOCYTE: 1.33%
  NEUTROPHIL: 12%
  NUCLEATED RED BLOOD CELLS: 0 /100WBC
  PLATELET COUNT: 984.33 x10E3/uL
  ALANINE AMINOTRANSFERASE: 52 u/L
  ALBUMIN: 4.67 G/DL
  ALKALINE PHOSPHATASE: 373 u/L
  ASPARTATE AMINOTRANSFERASE: 90 u/L
  BLOOD UREA NITROGEN: 15.33 mg/dL
  CARBON DIOXIDE: 31.33 mmol/L
  CHLORIDE: 100.33 MEQ/L
  CHOLESTEROL: 54 mg/dL
  CREATINE PHOSPHOKINASE: 434 u/L
  CREATININE: 0.24 mg/dL
  GLUCOSE: 159.67 mg/dL
  LACTATE DEHYDROGENASE: 385.67 u/L
  LIPASE: 12.33 u/L
  PHOSPHORUS: 15.13 mg/dL
  POTASSIUM: 6.75 MEQ/L
  SODIUM: 146.63 MEQ/L
  TOTAL BILIRUBIN: 0.3 mg/dL
  TOTAL PROTEIN: 6.5 G/DL
  URIC ACID: 2.2 mg/dL
[2]
  ABSOLUTE BASOPHIL: 0 CELLS/uL
  ABSOLUTE EOSINOPHIL: 44.33 CELLS/uL
  ABSOLUTE LYMPHOCYTE: 13110.67 CELLS/uL
  ABSOLUTE MONOCYTE: 225.33 CELLS/uL
  ABSOLUTE SEGMENTED NEUTROPHIL: 1586.33 CELLS/uL
  BASOPHIL: 0%
  EOSINOPHIL: 0.33%
  ERYTHROCYTE COUNT: 5.44 x10E6/uL
  HEMATOCRIT: 35.13%
  HEMOGLOBIN: 13.83 G/DL
  LEUKOCYTE COUNT: 14.97 x10E3/uL
  LYMPHOCYTE: 87.33%
  MEAN CORPUSCULAR HEMOGLOBIN: 25.4 pg
  MEAN CORPUSCULAR HEMOGLOBIN CONCENTRATION: 39.37 G/DL
  MEAN CORPUSCULAR VOLUME: 64.57 fL
  MONOCYTE: 1.33%
  NEUTROPHIL: 11%
  NUCLEATED RED BLOOD CELLS: 0 /100WBC
  PLATELET COUNT: 1247.33 x10E3/uL
  ALANINE AMINOTRANSFERASE: 51.67 u/L
  ALBUMIN: 4.23 G/DL
  ALKALINE PHOSPHATASE: 485 u/L
  ASPARTATE AMINOTRANSFERASE: 87 u/L
  BLOOD UREA NITROGEN: 14.67 mg/dL
  CARBON DIOXIDE: 28.67 mmol/L
  CHLORIDE: 102 MEQ/L
  CHOLESTEROL: 81 mg/dL
  CREATINE PHOSPHOKINASE: 255.33 u/L
  CREATININE: 0.2 mg/dL
  GLUCOSE: 140.33 mg/dL
  LACTATE DEHYDROGENASE: 340.33 u/L
  LIPASE: 9.67 u/L
  PHOSPHORUS: 12.73 mg/dL
  POTASSIUM: 7.04 MEQ/L
  SODIUM: 146.23 MEQ/L
  TOTAL BILIRUBIN: 0.23 mg/dL
  TOTAL PROTEIN: 6.03 G/DL
  URIC ACID: 1.43 mg/dL
[3]
  ABSOLUTE BASOPHIL: 0 CELLS/uL
  ABSOLUTE EOSINOPHIL: 0 CELLS/uL
  ABSOLUTE LYMPHOCYTE: 12003.67 CELLS/uL
  ABSOLUTE MONOCYTE: 90 CELLS/uL
  ABSOLUTE SEGMENTED NEUTROPHIL: 1073 CELLS/uL
  BASOPHIL: 0%
  EOSINOPHIL: 0%
  ERYTHROCYTE COUNT: 5.4 x10E6/uL
  HEMATOCRIT: 34.57%
  HEMOGLOBIN: 13.8 G/DL
  LEUKOCYTE COUNT: 13.17 x10E3/uL
  LYMPHOCYTE: 91%
  MEAN CORPUSCULAR HEMOGLOBIN: 25.6 pg
  MEAN CORPUSCULAR HEMOGLOBIN CONCENTRATION: 39.97 G/DL
  MEAN CORPUSCULAR VOLUME: 64 fL
  MONOCYTE: 0.67%
  NEUTROPHIL: 8.33%
  NUCLEATED RED BLOOD CELLS: 0 /100WBC
  PLATELET COUNT: 1261 x10E3/uL
  ALANINE AMINOTRANSFERASE: 42.67 u/L
  ALBUMIN: 4.27 G/DL
  ALKALINE PHOSPHATASE: 339.33 u/L
  ASPARTATE AMINOTRANSFERASE: 85.33 u/L
  BLOOD UREA NITROGEN: 16.67 mg/dL
  CARBON DIOXIDE: 32.67 mmol/L
  CHLORIDE: 104.67 MEQ/L
  CHOLESTEROL: 68.33 mg/dL
  CREATINE PHOSPHOKINASE: 102 u/L
  CREATININE: 0.21 mg/dL
  GLUCOSE: 147.67 mg/dL
  LACTATE DEHYDROGENASE: 96.33 u/L
  LIPASE: 8.67 u/L
  PHOSPHORUS: 14.27 mg/dL
  POTASSIUM: 7.04 MEQ/L
  SODIUM: 150.5 MEQ/L
  TOTAL BILIRUBIN: 0.2 mg/dL
  TOTAL PROTEIN: 6.33 G/DL
  URIC ACID: 1.7 mg/dL

Source: ChEMBL document CHEMBL3885881, “DrugMatrix”
